These results are taken from US8653064B2, “Crystalline forms of sodium 4-{[9-chloro-7-(2-fluoro-6-methoxyphenyl)-5H-pyrimido[5,4-D][2]benzazepin-2-yl]amino}-2-methoxybenzoate” (Millennium Pharmaceuticals, Inc., priority 2010, dated 2014).

One data set in a line: Solubility in water. It is filed as physicochemical.
The nature of data set [1]: Gravimetric vapor sorption (GVS). It is filed as physicochemical. To be noted: between 0-90% RH, 10% RH intervals, 25° C.

Regarding `COc1cc(Nc2ncc3c(n2)-c2ccc(Cl)cc2C(c2c(F)cccc2OC)=NC3)ccc1C(=O)O` [Form 24, sodium 4-{[9-chloro-7-(2-fluoro-6-methoxyphenyl)-5H-pyrimido[5,4-d][2]benzazepin-2-yl]amino}-2-methoxybenzoate Form 24], in “Solubility in water”, the solubility in water entry was “about 8 mg/mL”.
The same measure, in the same setting: under `COc1cc(Nc2ncc3c(n2)-c2ccc(Cl)cc2C(c2c(F)cccc2OC)=NC3)ccc1C(=O)O` [free acid, 4-{[9-chloro-7-(2-fluoro-6-methoxyphenyl)-5H-pyrimido[5,4-d][2]benzazepin-2-yl]amino}-2-methoxybenzoic acid] stands “about 10 μg/mL”.
Consider `COc1cc(Nc2ncc3c(n2)-c2ccc(Cl)cc2C(c2c(F)cccc2OC)=NC3)ccc1C(=O)O` [Form 6, sodium 4-{[9-chloro-7-(2-fluoro-6-methoxyphenyl)-5H-pyrimido[5,4-d][2]benzazepin-2-yl]amino}-2-methoxybenzoate Form 6], for which the “uptake (change in weight of the sample) in GVS” value in data set [1] was determined as 6%. Besides, in “Solubility in water”, the solubility in water result is reported as “greater than 10 mg/mL”.
For `COc1cc(Nc2ncc3c(n2)-c2ccc(Cl)cc2C(c2c(F)cccc2OC)=NC3)ccc1C(=O)O` [Form 2, sodium 4-{[9-chloro-7-(2-fluoro-6-methoxyphenyl)-5H-pyrimido[5,4-d][2]benzazepin-2-yl]amino}-2-methoxybenzoate Form 2], in “Solubility in water”, the solubility in water entry is “about 8 mg/mL”.
